From ChEMBL document CHEMBL1201862, “PubChem BioAssay data set” (2004)
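These data come from cells grown in 96-well plates and exposed to compound for 48 hours at five concentrations. GI50: concentration for 50% inhibition of growth.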 The source made the active and inactive calls. Cut-off read from the data, not from the text of the source: active = GI50 up to about 1.1 µM and inactive = higher.

Columns and labels:
Assay in all cases: growth of human tumour cells (NCI), 48 h
LOX IMVI = tested on: LOX IMVI
DLD-1 = tested on: DLD-1
K562 = tested on: K562
SN12C = tested on: SN12C
TK-10 = tested on: TK-10
CCRF-CEM = tested on: CCRF-CEM
HCC 2998 = tested on: HCC 2998
NCI-H23 = tested on: NCI-H23
OVCAR-3 = tested on: OVCAR-3
OVCAR-8 = tested on: OVCAR-8
SK-OV-3 = tested on: SK-OV-3
HCT-116 = tested on: HCT-116
Malme-3M = tested on: Malme-3M
HT-29 = tested on: HT-29
DMS-114 = tested on: DMS-114
HL-60 = tested on: HL-60
HOP-62 = tested on: HOP-62
UO-31 = tested on: UO-31
NCI-H226 = tested on: NCI-H226
RPMI-8226 = tested on: RPMI-8226
HCT-15 = tested on: HCT-15
OVCAR-4 = tested on: OVCAR-4
NCI-H522 = tested on: NCI-H522
A549 = tested on: A549
IGROV-1 = tested on: IGROV-1
HOP-18 = tested on: HOP-18
U-251 = tested on: U-251
CAKI-1 = tested on: CAKI-1
SF-295 = tested on: SF-295
SK-MEL-5 = tested on: SK-MEL-5
KM-20L2 = tested on: KM-20L2
UACC-257 = tested on: UACC-257
786-0 = tested on: 786-0
SF-539 = tested on: SF-539
SNB-19 = tested on: SNB-19
SF-268 = tested on: SF-268
DMS-273 = tested on: DMS-273
COLO 205 = tested on: COLO 205
HOP-92 = tested on: HOP-92
UACC-62 = tested on: UACC-62
SK-MEL-2 = tested on: SK-MEL-2
SNB-75 = tested on: SNB-75
EKVX = tested on: EKVX
M14 = tested on: M14
KM12 = tested on: KM12
A498 = tested on: A498
SW-620 = tested on: SW-620
MOLT-4 = tested on: MOLT-4
M19-MEL = tested on: M19-MEL
NCI-H460 = tested on: NCI-H460
ACHN = tested on: ACHN
SK-MEL-28 = tested on: SK-MEL-28
LXFL 529 = tested on: LXFL 529
OVCAR-5 = tested on: OVCAR-5
SNB-78 = tested on: SNB-78
SR = tested on: SR
RXF 393 = tested on: RXF 393

## O=c1ccn([C@@H]2C[C@H](CO)C[S+]([O-])C2)c(=O)[nH]1 (stereo partly specified)
LOX IMVI
  GI50: > 100 µM (inactive)
DLD-1
  GI50: > 100 µM (inactive)
K562
  GI50: > 100 µM (inactive)
SN12C
  GI50: > 100 µM (inactive)
TK-10
  GI50: > 100 µM (inactive)
CCRF-CEM
  GI50: > 100 µM (inactive)
HCC 2998
  GI50: > 100 µM (inactive)
NCI-H23
  GI50: > 100 µM (inactive)
OVCAR-3
  GI50: > 100 µM (inactive)
OVCAR-8
  GI50: > 100 µM (inactive)
SK-OV-3
  GI50: > 100 µM (inactive)
HCT-116
  GI50: > 100 µM (inactive)
Malme-3M
  GI50: > 100 µM (inactive)
HT-29
  GI50: > 100 µM (inactive)
DMS-114
  GI50: > 100 µM (inactive)
HL-60
  GI50: > 100 µM (inactive)
HOP-62
  GI50: > 100 µM (inactive)
UO-31
  GI50: > 100 µM (inactive)
NCI-H226
  GI50: > 100 µM (inactive)
RPMI-8226
  GI50: > 100 µM (inactive)
HCT-15
  GI50: > 100 µM
OVCAR-4
  GI50: > 100 µM (inactive)
NCI-H522
  GI50: > 100 µM (inactive)
A549
  GI50: > 100 µM (inactive)
IGROV-1
  GI50: > 100 µM (inactive)
HOP-18
  GI50: > 100 µM (inactive)
U-251
  GI50: > 100 µM (inactive)
CAKI-1
  GI50: > 100 µM (inactive)
SF-295
  GI50: > 100 µM (inactive)
SK-MEL-5
  GI50: > 100 µM (inactive)
KM-20L2
  GI50: > 100 µM (inactive)
UACC-257
  GI50: > 100 µM (inactive)
786-0
  GI50: > 100 µM (inactive)
SF-539
  GI50: > 100 µM (inactive)
SNB-19
  GI50: > 100 µM (inactive)
SF-268
  GI50: > 100 µM (inactive)
DMS-273
  GI50: > 100 µM (inactive)
COLO 205
  GI50: > 100 µM (inactive)
HOP-92
  GI50: > 100 µM (inactive)
UACC-62
  GI50: > 100 µM (inactive)
SK-MEL-2
  GI50: > 100 µM (inactive)
SNB-75
  GI50: > 100 µM (inactive)
EKVX
  GI50: > 100 µM (inactive)
M14
  GI50: > 100 µM (inactive)
KM12
  GI50: > 100 µM (inactive)
A498
  GI50: > 100 µM (inactive)
SW-620
  GI50: > 100 µM (inactive)
MOLT-4
  GI50: > 100 µM (inactive)
M19-MEL
  GI50: > 100 µM (inactive)
NCI-H460
  GI50: > 100 µM (inactive)
ACHN
  GI50: > 100 µM (inactive)
SK-MEL-28
  GI50: > 100 µM (inactive)
LXFL 529
  GI50: > 100 µM (inactive)

## COc1cc2c(cc1O)[C@@]1(Cc3ccc(OC)c(OC)c3)CCC(=O)N1CC2
LOX IMVI
  GI50: > 100 µM (inactive)
DLD-1
  GI50: > 100 µM (inactive)
K562
  GI50: > 100 µM (inactive)
SN12C
  GI50: > 100 µM (inactive)
TK-10
  GI50: > 100 µM (inactive)
CCRF-CEM
  GI50: > 100 µM (inactive)
HCC 2998
  GI50: > 100 µM (inactive)
NCI-H23
  GI50: > 100 µM (inactive)
OVCAR-3
  GI50: > 100 µM (inactive)
OVCAR-8
  GI50: > 100 µM (inactive)
HCT-116
  GI50: > 100 µM (inactive)
Malme-3M
  GI50: 68.4 µM (inactive)
OVCAR-5
  GI50: > 100 µM (inactive)
SNB-78
  GI50: > 100 µM (inactive)
HT-29
  GI50: > 100 µM (inactive)
DMS-114
  GI50: > 100 µM (inactive)
HL-60
  GI50: > 100 µM (inactive)
HOP-62
  GI50: > 100 µM (inactive)
UO-31
  GI50: 63.2 µM (inactive)
NCI-H226
  GI50: > 100 µM (inactive)
RPMI-8226
  GI50: > 100 µM (inactive)
HCT-15
  GI50: > 100 µM
OVCAR-4
  GI50: > 100 µM (inactive)
A549
  GI50: > 100 µM (inactive)
IGROV-1
  GI50: > 100 µM (inactive)
HOP-18
  GI50: 31.3 µM (inactive)
CAKI-1
  GI50: > 100 µM (inactive)
SF-295
  GI50: > 100 µM (inactive)
SK-MEL-5
  GI50: > 100 µM (inactive)
KM-20L2
  GI50: > 100 µM (inactive)
UACC-257
  GI50: > 100 µM (inactive)
786-0
  GI50: > 100 µM (inactive)
SF-539
  GI50: > 100 µM (inactive)
SNB-19
  GI50: > 100 µM (inactive)
SR
  GI50: 61.8 µM (inactive)
SF-268
  GI50: > 100 µM (inactive)
DMS-273
  GI50: > 100 µM (inactive)
COLO 205
  GI50: > 100 µM (inactive)
HOP-92
  GI50: 39.8 µM (inactive)
UACC-62
  GI50: > 100 µM (inactive)
SNB-75
  GI50: > 100 µM (inactive)
RXF 393
  GI50: > 100 µM (inactive)
EKVX
  GI50: > 100 µM (inactive)
M14
  GI50: > 100 µM (inactive)
KM12
  GI50: > 100 µM (inactive)
A498
  GI50: > 100 µM (inactive)
SW-620
  GI50: > 10 µM (inactive)
MOLT-4
  GI50: 52 µM (inactive)
M19-MEL
  GI50: > 100 µM (inactive)
NCI-H460
  GI50: > 100 µM (inactive)
ACHN
  GI50: > 100 µM (inactive)
SK-MEL-28
  GI50: > 100 µM (inactive)
LXFL 529
  GI50: > 100 µM (inactive)
